Measurements reported in patent publication US8097615B2, “Neurofibrillary labels” (Wista Laboratories Ltd., priority 2001, dated 2012).
“Also recorded” adds a separate entry of the source. Like-named read-outs stand apart in the source and are kept apart here.

Legend:
amyloid = experiment: Labelling / staining of amyloid deposits; format: binding
tangle fragments = experiment: Competitive binding assay: displacement of primulin fluorescence from tangle fragments (ifI); design: species or system human; settings: for competition with / displacement of other ligands at tangles: fluorescence end point
Procedure: IfI material was homogenised in a 0.2 ml glass homogeniser in PBS. To the suspension, test compounds were added to final concentrations ranging from 0.1% to 0.00001%. […] The suspensions were transferred to a glass slide, and examined by fluorescence microscopy across a range of fluorescence filter blocks, covering excitation and emission wavelengths between 380 nm and 570 nm. The end point sought in these observations was displacement of typical primulin fluorescence from tangle fragments.

tau-tau binding = biological target: T1, tau-tau binding (Homo sapiens, UniProt P10636); experiment: Solid-phase tau-tau binding assay (dGA solid phase, dGAE liquid phase), tau Preparation 2; format: biochemical; settings: for tau-tau binding relative to that seen in the absence of DMMB: tau typically 1 μM
T1 construct: a truncated tau protein corresponding to the core fragment and terminating at Ala390-dGA; dGAE which terminates at Glu-391; made in house; host or cells: E. coli BL21 (DE3), pRK172; DE52 flow-through, P11 phosphocellulose, PEG concentration, no heat step (Preparation 2)
Procedure: Preparation 2 differs from Preparation 1 above in the following respects: (1) The concentration of cells at the sonication stage is increased by 5-fold. (2) A batchwise adsorption of non-tau proteins to DE52 is included. (3) The proteins are not subjected to heat treatment. (4) The final step involves concentration using polyethylene glycol.
Escherichia coli is grown in 2×TY medium (Oxoid) supplemented with ampicillin (50 micrograms per ml) to late-logarithmic phase. Cells from 5 liters of culture are harvested by centrifugation and the cell pellets frozen rapidly over liquid nitrogen. The pellets are taken up with 50 mM PIPES (pH 6.8) containing 1 mM EDTA, 1 mM dithiothreitol and 1 mM phenylmethylsulphonylfluoride (PMSF) and bacteria lysed by sonication (2×3 min) at 4 C. The mixture is centrifuged at 10,000 rpm for 20 min. The supernatant is rotated with 1 gram of Whatman DE52 for 3 hr at 4 C. The mixture is separated on a column and the flow-through material that fails to bind to DE52 is incubated for 3 hr at 4 C, with rotation, with 0.4 g of Whatman P11 (freshly regenerated according to manufacturer's recommendations). The column is washed with column buffer (50 mM PIPES, pH 6.8 containing 1 mM EGTA, 5 mM EDTA, 0.2 mM MgCl2, 5 mM β-mercaptoethanol and 1 mM PMSF). Tau protein is eluted stepwise with a 0.1 to 1 M gradient of KCl in column buffer. Fractions containing tau (determined by immunoassay) are pooled and dialysed against 80 mM PIPES (pH6.8) containing 1 mM EGTA, 1 mM MgCl2 and 5 mM β-mercatoethanol, using dialysis tubing with a molecular weight cut-off of 1,000. The dialysate is concentrated by applying polyethylene glycol 8000 to the outside of the sac for 2-3 hr. The final concentration of tau ranged from 3 to 10 mg per ml.
When the proteins dGA and dGAE were prepared as indicated above (“Preparation 2”), the properties of the tau-tau binding assay were altered relative to the properties obtained using the preparative method described in WO96/30766 (“Preparation 1”).
The assay is performed using 96 well PVC plates (Falcon Cat. No. 353912 are used), and the following steps:
1. 50 μl dGA (˜10 μg/ml) in carbonate buffer, incubate 1 h at 37° C.
(Carbonate buffer: 50 mM carbonate bicarbonate, pH 9.6 (Na2CO3 1.59 g/l, NaHCO3 2.93 g/l))
2. Wash plate in 0.05% Tween-20.
3. 200 μl PBS+2% Marvel, incubate 1 h at 37° C.
4. Rinse plate 2× in deionised water, then wash in 0.05% Tween-20.
5. 50 μl dGAE (˜10 μg/ml) plus drug in PBS+1% fish skin gelatin+0.05% Tween-20, incubate 1 h at 37° C.
6. Wash plate in 0.05% Tween-20.
7. 50 μl antibody 423 (1:10 dilution in PBS+2% Marvel), incubate 1 h at 37° C.
8. Rinse plate 2× in deionised water, then wash in 0.05% Tween-20.
9. 50 μl HRP-anti-mouse (1:1000 dilution in PBS+0.05% Tween-20), incubate 1 h at 37° C.
10. Wash plate in 0.05% Tween-20, then rinse 1× with deionised water.
11. 50 μl substrate solution, read immediately initial rate over 2 min in plate reader at OD650.
(Substrate solution: 50 mM sodium acetate, pH 5.0+TMB (1 ml/100 ml of a 10 mg/ml solution in DMSO)+H2O2 (10 μl/100 ml)).

isolated PHFs = experiment: Ligand electronmicroscopy of Pronase-digested PHFs (gold-conjugated anti-biotin antibody); format: binding
Procedure: (§1) In ifI suspensions such as this, tangles can be seen by blue fluorescence which is […] from that associated with binding of contaminants in the preparation. […] (a) Chemical labelling with the biotinylated benzothiazole analogue shown as 4b in FIG. 4. PHFs were deposited on a carbon-coated grid after Pronase digestion, and incubated briefly with compound 4b, and then incubated with an anti-biotin antibody preparation that had been conjugated with colloidal gold. […] (b) mAb 423 immunolabelling of isolated PHFs after Pronase digestion., followed by incubation with a gold-conjugated goat anti-mouse second antibody as described in Novak et al. 1993 (Novak M, Kabat J, Wischik C M (1993) “Molecular characterisation of the minimal protease-resistant tau unit of the Alzheimers' disease paired helical filament”, EMBO J. 12: 365-370). As shown in this paper, mAb 423 labels PHFs derived from intracellular tangles (which preserve N-terminal tau immunoreactivity in the fuzzy outer coat) poorly, but Pronase digested PHFs strongly.
PHFs derived from an ifI fraction were deposited on a carbon coated grid after pronase digestion, and incubated briefly with a preparation of biotinylated Primulin, and then incubated with an anti-biotin antibody that has been conjugated with colloidal gold by the method of Slot and Gueze (1981).

PHFs = experiment: Spectrofluorometry of primulin in solution and bound to PHFs (ifII); format: binding; settings: PHFs with bound primulin treated with the substance
Procedure: These measurements were carried out in a Perkin-Elmer spectrofluorimeter (model MPF-3). A concentration of ligand of 0.00001% was routinely used for all measurements. […] All measurements were therefore carried out at a standard excitation wavelength of 370 nm, and a constant slit width of 3 mm.
Further investigations into the relationship between aggregation-dependent tau ligands and tau aggregation inhibitors were carried out using primulin. Primulin in solution has a fluorescence peak at 520 nm. This shifts to 470 nm when primulin is bound within a pure preparation of PHFs (FIG. 6). […] Therefore, binding by such compounds is dependent on the polymerised state of tau found in the PHF, but is not present in free tau.
Compounds have been identified which disrupt the structure of the PHF and reverse the proteolytic stability of the PHF core (see WO 96/30766). Examples of such compounds are shown in accompanying FIG. 8. The present inventors have now identified that these compounds bind to tau at a specific binding site within the high affinity tau-tau binding domain.

neurofibrillary tangles = experiment: Fluorescence labelling of tangles (sections, ifI tangle suspensions); format: binding, human
Procedure: as §1
Serial 16 μm sections are cut from the hippocampus of a case dying with clinically and neuropathologically confirmed AD. […]
A Leitz fluorescence microscope fitted with a photo-multiplyer tube (Model MPV-2) was used to quantitate fluorescence emission. […]

T1 sequence (P10636 614-708 limits assumed): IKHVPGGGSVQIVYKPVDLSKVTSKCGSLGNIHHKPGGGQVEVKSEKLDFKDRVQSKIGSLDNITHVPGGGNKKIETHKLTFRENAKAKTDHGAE

2-(4-amino phenyl)-6-methyl-1-sulphonate benzothiazole [compound 2]
displaced from amyloid by primulin (amyloid): not amyloid
labelling / staining of amyloid (amyloid): bind preferentially to amyloid
displaced from tangles by primulin (SB-ligand) (tangle fragments): displaced from NFTs; also recorded: displace this from tangles

Cc1cc(=[N+](C)C)cc2sc3cc(N(C)C)cc(C)c3nc1-2.[Cl-] [DMMB, dimethyl methylene blue]
inhibitory potency in Preparation 2 compared with Preparation 1 (tau-tau binding): higher inhibitory potency in Preparation 2 than in Preparation 1
tau-tau binding relative to that seen in the absence of DMMB (tau-tau binding; DMMB 5 μM): 23%
tau-tau binding relative to that seen in the absence of DMMB (tau-tau binding; DMMB 15 μM): 17%

O=C(O)CCCC[C@@H]1SC[C@@H]2NC(=O)N[C@@H]21 [biotin]
immunogold anti-biotin labelling of isolated PHFs after pre-incubation (isolated PHFs): no labelling

CC1=CC(=O)OC1=O [citraconic anhydride]
effect on PHF-bound primulin fluorescence peak (PHFs): disrupting the orderly structure of PHFs and releasing free tau and free unbound primulin; also recorded: abolish the 470 nm fluorescence peak

Cc1ccc2sc(-c3ccc(N=Nc4ccccc4O)cc3)nc2c1S(=O)(=O)[O-].[Na+] [compound 4a]
activity as ligand (tangle fragments): active ligands
competition with / displacement of other ligands at tangles (tangle fragments): compete out thiazin red and primulin fluorescence at equivalent concentrations

Cc1ccc2sc(-c3ccc(N=Nc4cc(CCC(=O)ON5C(=O)CCC5=O)ccc4O)cc3)nc2c1S(=O)(=O)[O-].[Na+] [compound 4b]
immunogold anti-biotin labelling of isolated PHFs after pre-incubation (isolated PHFs): binds to the proteolytically stable PHF structure; also recorded: label isolated PHFs
competition with / displacement of other ligands at tangles (tangle fragments): compete primulin and thiazin red

Cc1ccc2sc(-c3ccc(N=NNc4ccc(-c5nc6c(S(=O)(=O)[O-])c(C)ccc6s5)cc4)cc3)nc2c1S(=O)(=O)[O-].[Na+].[Na+] [thiazin yellow]
activity as ligand (tangle fragments): inactive as a ligand; also recorded: does not serve as an effective ligand
competition with / displacement of other ligands at tangles (tangle fragments): did not

Cc1ccc2c(c1)sc(-c1ccc(N(C)C)cc1)[n+]2C.[Cl-] [thioflavin-T]
labelling / staining of amyloid (amyloid): labelled amyloid preferentially; also recorded: strongly stain amyloid deposits
labelling / staining of amyloid (amyloid; listed as 1b): bind preferentially to amyloid
displaced from tangles by primulin (SB-ligand) (tangle fragments): displaced by yellow tangle fluorescence produced by primulin; also recorded: can be displaced from tangles by primulin
displaced from tangles by primulin (SB-ligand) (tangle fragments; listed as 1b): displaced from NFTs
displaced from tangles by primulin (SB-ligand) (tangle fragments; listed as compound 1b): displace compound 1b at tangles
labelling of tangles (neurofibrillary tangles): barely visible tangle; also recorded: much less effective

alcian blue
effect on PHF-bound primulin fluorescence peak (PHFs): no disturbance of the characteristic bound primulin fluorescence peak; also recorded: retention of the fluorescence peak of primulin at 470 nm
